Converted amounts (≈) assume the structure as drawn. Structures can show the parent of a compound that is named as a salt. Square brackets hold non-standard residues; d marks the D form. Peptide text beside a SMILES is read from it. NMeR = CN[C@@H](CCCNC(=N)N)C(=O)O; 3Amb = NCc1cccc(C(=O)O)c1; dAbu = CC[C@@H](N)C(=O)O
Tests used:
[1] = system: platelet aggregation; details: 20 mg/kg infused into femoral vein of anesthetized dogs; cited from earlier work
[2] = system: platelet aggregation; assay: In vivo platelet aggregation, dogs (ex vivo aggregation response); details: dog, capsule of 10 mg BID for 4 days (15 mg on day 3)
Description: Three beagle dogs were therefore infused with compound B while monitoring blood pressure, heart rate, PT (prothrombin time), and aPTT (activated partial thromboplastin time). […] In a second study, a dog was treated with a capsule of 10 mg of compound A, BID for 4 days (15 mg on day 3) prior to antibody testing. […] Four hours after the last oral dose of compound A, a dose of pentobarbitol and the monoclional antibody ([…]-9F7) was infused by a i.v. bolus injection. Each bolus contained a 5-fold molar excess over drug plasma levels (about 50 mg of Mab 9F7). A control dog was given identical amounts of antibody without compound A oral dosing.

[3] = system: human platelet rich plasma; assay: Aggregation of human platelet rich plasma; type: cell-based; details: read-out: inhibition of aggregation by the compound itself; for inhibition at 0.05 µM: 5×10^−8 M
Description: Human platelet rich plasma (“PRP”) was prepared by centrifugation of citrated whole blood at 970×g for 3.5 minutes at room temperature. PRP was carefully removed from red cells and placed in 50 mL conical tubes. Platelet aggregation was measured as an increase in light transmission in an aggregometer (Bio/Data model PAP-4, Horsham, Pa.) using ADP (20 μM) or collagen (4 μg/mL) as the agonist.
Antibodies produced according to Example 4 were assayed in aggregation for their ability to neutralize (at 60 nM) the GPIIb/IIIa antagonists compound B (5×10^−8 M), compound D (1×10^−7 M), and Merck compound MK383 (5×10^−8 M), as a means of screening which ones recognized the antagonists in a useful manner. The levels of antiplatelet compounds used provided at least 50 percent inhibition of aggregation by themselves. Results are illustrated in FIG. 3.
Collagen-induced platelet aggregation was measured in the presence of 50 nM compound B or 100 nM compound D over 3 minutes in the presence or absence of Mab 9F7 inclusion at 60 nM.

[4] = Removal from circulation / elimination half-life; type: in vivo; details: for route of removal from circulation: in vivo; for change of elimination half-life with decreased creatinine clearance: renal impairment
[5] = system: platelet aggregation; assay: IC50 values of antiplatelet compounds (FIG. 1 legend); type: cell-based
[6] = system: heparinized human whole blood; assay: Activated clotting time (ACT) in heparinized human whole blood, Hemochron-8000; type: cell-based; details: 1.4 Units/mL heparin; FIG. 1
Text: This process can be used to calculate a standardized concentration curve for various known concentrations of anti-platelet compounds. The process can also be used to measure activated clotting times for use in calculating the ACT number for the processes of the invention.
A. Blood was drawn from a human volunteer into a syringe containing heparin. The heparin to whole blood ratio was 1:10 such that the final concentration of heparin in the syringe was 1.4 Units/mL.
B. The Hemochron™-8000 was set up to run ACT using the P-215 tubes from the same manufacturer (International Technidyne).
A. A 1 mL sample of the above heparinized blood was admixed and maintained (incubated) with 2.5-10 μl of antagonist compound or saline for 5 minutes at room temperature.
B. The Hemochron™ was started as 400 μl of the test sample was pipetted into the P-215 tube. The tube contents were gently mixed, placed into the Hemochron™ and turned one revolution until the light on the instrument came on.
C. Step B was repeated for the second channel of the instrument within 30 seconds to give an average activated clotting time. […]
The activated clotting time was first measured (in seconds) for control whole blood from each donor containing only 1.4 Units/mL of heparin. The clotting times were then measured as in Example 1 by varying concentrations of antiplatelet compounds B and D in addition to heparin for each donor. […]

[7] = Total and free plasma levels of compound B in dog; type: in vivo; details: three bolus infusions of Mab 9F7, FIG. 11
Description: In a second study, a dog was treated with a capsule of 10 mg of compound A, BID for 4 days (15 mg on day 3) prior to antibody testing. […] Four hours after the last oral dose of compound A, a dose of pentobarbitol and the monoclional antibody (P187-9F7) was infused by a i.v. bolus injection. Each bolus contained a 5-fold molar excess over drug plasma levels (about 50 mg of Mab 9F7). A control dog was given identical amounts of antibody without compound A oral dosing. Blood samples were collected for aggregation assays at 5, 15, 30 and 60 minutes after each bolus administration of antibody, plasma levels of Mab 9F7, and total and free plasma levels of compound B.
This method involves the extraction of compound B and an internal standard (compound F, shown hereinafter) from acidified dog plasma with a C18 solid phase extraction column. Analysis is by reverse phase high performance liquid chromatography with fluorescence detection. Calibration standards were prepared in human heparinized plasma. Quality control pools were prepared in dog plasma and quantified using the human calibration curve. A linear weighted (1/concentration squared) least squares regression analysis was used to quantify samples. This method was validated with a minimum quantifiable level of 1.00 ng/mL. […]
Removed the samples to be analyzed from the freezer and thawed. […] The filtrate was then analyzed by the method given below. […]

[8] = Half-life of compound B in guinea pig; type: in vivo

SMILES | inhibition at 0.05 µM [3] [%] | route of removal from circulation [4] | change of elimination half-life with decreased creatinine clearance [4] | IC50 [5] [µg/mL] | effect of compound concentration on activated clotting time [6] | further results
CC[C@H]1NC(=O)c2cccc(c2)CNC(=O)[C@H](CC(=O)O)NC(=O)CNC(=O)[C@H](CCCNC(=N)N)N(C)C1=O [DMP728, cyclic [D-2-aminobutyryl-N2-methyl-L-arginyl-glycyl-L-aspartyl-3-aminomethyl-benzoic acid] methanesulfonic acid salt] (cyclo([NMeR]GD[3Amb][dAbu])) | – | – | – | – | – | duration of inhibition of platelet aggregation [1]: up to 210 minutes; inhibition of platelet aggregation, measured ex vivo [1]: nearly complete inhibition
C#C[C@H](CC(=O)OCC)NC(=O)CCC(=O)Nc1ccc(C(=N)N)cc1.Cl [Compound A, ethyl 3S-[[4-[[4-(aminoiminomethyl)phenyl]-amino]-1,4-dioxobutyl]amino]-4-pentynoate monohydrochloride] | – | – | – | – | – | inhibition of platelet function [2]: 54%
CCCCS(=O)(=O)N[C@@H](Cc1ccc(OCCCCC2CCNCC2)cc1)C(=O)O [MK383, N-(butylsulfonyl)-0-(4-(4-piperidinyl)butyl)-L-tyrosine, monohydrochloride, reference compound] | ≥ 50 | – | – | – | – | –
N=C(N)c1ccc(N2CC[C@H](NC(=O)NCCC(=O)O)C2=O)cc1 [Compound D, 3-[[[[1-[4-(aminoiminomethyl)phenyl]-2-oxo-pyrrolidin-3S-yl]amino]carbonyl]amino]propanoic acid] | – | almost exclusively by the kidney | appreciable increases | 0.043 (≈ 0.129 µM) | directly affect the activated clotting time | inhibition at 0.1 µM ([3]; 1×10^−7 M): ≥ 50%
C#C[C@H](CC(=O)O)NC(=O)CCC(=O)Nc1ccc(C(=N)N)cc1 [Compound B, 3S-[[4-[[4-(aminoiminomethyl)phenyl]amino]-1,4-dioxobutyl]amino]-4-pentynoic acid] | ≥ 50 | almost exclusively by the kidney | appreciable increases | 0.027 (≈ 0.0817 µM) | directly affect the activated clotting time | levels of total compound B (free plus antibody bound) [7]: increased throughout the three infusions; half-life [8]: short
